Reference: paper PMC8626775, “Anti-schistosomal activities of quinoxaline-containing compounds: From hit identification to lead optimisation” (European Journal of Medicinal Chemistry, 2021)
pEC50: −log10 of the molar value. Several values for one entry are separate records, joined by “and”; a condition that tells them apart may be missing. Equal values may be shown once. Read-outs that look alike come from different tables or passages of the source.

Key:
[1] = system: adult S. japonicum male worms; test: In vitro screening of S. japonicum adults at 100 nM (WormAssay motility, descriptors, severity score); assay type: cell-based, Schistosoma japonicum; conditions: for Effect on S. japonicum adult male worms: 5, 24, 48 and 72 h; for SEVERITY SCORES 5 h / SEVERITY SCORES 24 h / SEVERITY SCORES 48 h / DESCRIPTORS 48 h / SEVERITY SCORES 72 h / DESCRIPTORS 72 h: S. japonicum; for SEVERITY SCORES 5 h / SEVERITY SCORES 24 h / SEVERITY SCORES 48 h / SEVERITY SCORES 72 h: max = 4, one line per replicate; for DESCRIPTORS 48 h / DESCRIPTORS 72 h: one line per replicate
Procedure: (§1) For each species, parasite recovery involved reverse perfusion of the hepatic portal and mesenteric system using DMEM (Fisher Scientific). Parasites were washed six times with Basch 169 medium supplemented with 100 U/ml penicillin and 100 μg/ml streptomycin before manually distributing approximately 5 males per well (on occasion 1 or 2 females might also be present) of a 24-well plate (Corning Costar 3524). […] The next morning, a final concentration of 100 nM compound (in 1 μL DMSO) was added to each well and the final volume made up to 2 ml with Basch 169 medium supplemented with antibiotics and FBS. Each compound was tested in triplicate (except for some instances tested in duplicate). […] The phenotypic characterisation of compound effects focused on male worms due to the greater range of their motility characteristics that include flexing, bending, stretching, sucker walking and adherence, compared to the more sedentary female worms. In addition to descriptors, WormAssay, as adapted for the schistosome, was used to measure average worm motility per well [72, 73].

[2] = system: HepG2 cells; test: HepG2 MTT cytotoxicity assay; conditions: for Selectivity Index (SI) Adult worms: HepG2 CC50 versus adult worm EC50; for Selectivity Index (SI) Somula: HepG2 CC50 versus schistosomula EC50
Procedure: Initially the cells were handled under sterile conditions and grown at 37 °C in a humidified atmosphere containing 5% CO2. Cytotoxicity was evaluated by way of a 3-(4, 5- dimethylthiazol-2-yl)-2,5-diphenyl tetrazolium bromide (MTT) assay as previously described. The cells were counted in a dual chamber counting slide using the BIORAD TC-10 Automated cell counter, seeded in a 96-well plate (Fisher Scientific, Loughborough, UK) at a density of 2 × 10^4 cells/well and incubated in an atmosphere of 5% CO2 at 37 °C. […] The absorbance readings (at 570 nm) of the soluble formazan crystals were recorded using PolarStar Omega plate reader (BMG-Labtech). […] The latter was used to calculate the selectivity index (SI) of the compounds presented herein.

[3] = system: S. mansoni adult worms; test: S. mansoni adult worm motility screen (WormassayGP2), 72 h; assay type: cell-based, Schistosoma mansoni; conditions: Schistosoma mansoni
Source text: Mice (Mus musculus HsdOLa:TO - Tuck Ordinary; Envigo, UK) were used for the mammalian-specific propagation of the S. mansoni life cycle. Experimental animals were infected with 4000 or 180 S. mansoni cercariae/mouse and perfused three- or seven-weeks post-infection to obtain S. mansoni juvenile or adult worms, respectively. Preparation steps following perfusion have been described previously. Briefly, the parasite material was washed three times with pre-warmed adult worm media (DMEM (Gibco, Paisley, UK) supplemented with 10% (v/v) Fetal Calf Serum (FCS, Gibco, Paisley, UK), 1% (v/v) L-glutamine (Gibco, Paisley, UK) and an antibiotic mixture (150 Units/ml penicillin and 150 μg/ml streptomycin; Gibco, UK)) to remove residual host contamination and incubated in a humidified environment containing 5% CO2 at 37 °C for at least 1 h.
For the evaluation of anti-schistosomal activity on the adult stage of the parasite, 7-wk old worms were transferred into 48 well tissue culture plates (1–3 worm pairs/well, in duplicate). […] DMSO (0.5%) and praziquantel (10 μM in 0.5% DMSO) were also included as negative and positive control treatments. Treated adult worms were incubated for 72 h in a humidified environment containing 5% CO2 at 37 °C. Parasite motility after compound treatment was assessed by a digital image processing-based system (WormassayGP2), modified after Wormassay. Following compound-parasite co-incubation, eggs were collected, fixed in formalin (10% v/v formaldehyde) and enumerated aiming to collect further information on any compound-induced effects on parasite fecundity and IVLE production.

[4] = system: S. mansoni schistosomula; test: S. mansoni schistosomula high-throughput phenotype and motility screen (Roboworm), 72 h; assay type: cell-based, Schistosoma mansoni; conditions: Schistosoma mansoni
Procedure: Cercariae derived from the NMRI ([…]) Puerto Rican strain (PR-1) of S. mansoni were shed from two Biomphalaria glabrata strains, the NMRI albino and pigmented outbred strains, under intensified lighting conditions (1 h of incubation at 26 °C). Cercariae were then mechanically transformed into schistosomula as previously described.
High-throughput screening (HTS) of selected compounds was conducted as previously described. Briefly, newly transformed schistosomula were distributed in a 384-well tissue culture plate (PerkinElmer, cat 6007460, seeding density of 120 parasites/well). Each compound (at a single concentration or two-fold titrations) was transferred into individual wells alongside the positive and negative controls (AUR at 10 μM final concentration in 0.625% DMSO and 0.625% DMSO, respectively). Schistosomula/compound co-cultures were then incubated at 37 °C for 72 h in a humidified atmosphere containing 5% CO2. Following the co-culture period, automatic assessment of compound-induced schistosomula motility and phenotypic changes were conducted with the high-content imaging platform Roboworm using the image analysis model previously described by Paveley et al..

[5] = system: Adult S. haematobium worms; test: In vitro screening of S. haematobium adults at 100 nM (WormAssay motility, descriptors, severity score); assay type: cell-based, Schistosoma haematobium
Procedure: as §1

[6] = Table 4, Series A, read-out: Anti-schistosomal activity EC50 Adult (nM) Motility
[7] = Table 2, 72 h, titrations 0.0095–5 μM, WormassayGP2, read-out: Activity on adult worms (EC50, μM - 72 h) Motility
[8] = 72 h, Table 2, average of phenotype and motility EC50, 72 h, read-out: Activity on schistosomula (EC50, μM - 72 h) Average
[9] = 72 h, Table 2, motility, 72 h, three replicate titrations (0.313–10 μM), read-out: Activity on schistosomula (EC50, μM - 72 h) M
[10] = 72 h, Table 2, phenotype, 72 h, three replicate titrations (0.313–10 μM), read-out: Activity on schistosomula (EC50, μM - 72 h) P
[11] = Table 4, Series A, read-out: Anti-schistosomal activity EC50 Schistosomula (μM) Motility
[12] = Table 4, Series A, read-out: Anti-schistosomal activity EC50 Schistosomula (μM) Phenotype

SMILES | Effect on S. japonicum adult male worms [1] | SEVERITY SCORES 5 h [1] | SEVERITY SCORES 24 h [1] | SEVERITY SCORES 48 h [1] | DESCRIPTORS 48 h [1] | SEVERITY SCORES 72 h [1] | DESCRIPTORS 72 h [1] | Selectivity Index (SI) Adult worms [2] | Selectivity Index (SI) Somula [2] | EC50 [3, 6] [nM] | EC50 [3, 7] [nM] | EC50 [4, 8] [µM] | EC50 [4, 9] [µM] | EC50 [4, 10] [µM] | EC50 [4, 11] [µM] | EC50 [4, 12] [µM] | also measured
O=[N+]([O-])c1ccc2nc(Nc3cccc(Cl)c3)c(Nc3cccc(Cl)c3)nc2c1 [Compound 25, N^2, N^3-bis(3-chlorophenyl)-6-nitroquinoxaline-2,3-diamine] | decreased motility starting at 48 h | 0 | 0 | 2 | S, on sides | 2 | S+, on sides | 47.99 | 0.46 | 12 | 12 | 1.26 | 1.3 | 1.22 | 1.3 | 1.22 | 
O=[N+]([O-])c1ccc2nc(Nc3ccc(Br)cc3)c(Nc3ccc(Br)cc3)nc2c1 [Compound 29, N2, N3-bis(4-bromophenyl)-6-nitroquinoxaline-2,3-diamine] |  |  |  |  |  |  |  | 32.52 | 5.55 | 122 | 122 | 0.71 | 0.65 | 0.78 | 0.83 | 1.06 | 
O=[N+]([O-])c1ccc2nc(Nc3ccc(F)c(C(F)(F)F)c3)c(Nc3ccc(F)c(C(F)(F)F)c3)nc2c1 [Compound 32, N2, N3-bis(4-fluoro-3-(trifluoromethyl)phenyl)-6-nitroquinoxaline-2,3-diamine] |  |  |  |  |  |  |  | 60.99 | 0.94 | 11 | 11 | 0.72 | 0.54 | 0.89 | 0.54 | 0.89 | 
O=[N+]([O-])c1ccc2nc(Nc3cccc(C(F)(F)F)c3)c(Nc3cccc(C(F)(F)F)c3)nc2c1 [Compound 30, 6-nitro-N2, N3-bis(3-(trifluoromethyl)phenyl)quinoxaline-2,3-diamine] | decreased motility starting at 48 h | 0 | 0 | 2 and 1 | S, on sides and S | 2 and 1 | S, on sides and S+ | 348 and 347.59 | 2.36 | 2.59 | 2.59 | 0.38 | 0.43 | 0.34 | 0.43 | 0.34 | Effect on S. haematobium adult worms ([5]; 5, 24, 48 and 72 h): relatively mild effects; SEVERITY SCORES 5 h ([5]; S. haematobium, 5 h, max = 4, one line per replicate): 0; SEVERITY SCORES 24 h ([5]; S. haematobium, 24 h, max = 4, one line per replicate): 0; SEVERITY SCORES 48 h ([5]; S. haematobium, 48 h, max = 4, one line per replicate): 1 and 2; DESCRIPTORS 48 h ([5]; S. haematobium, 48 h, one line per replicate): S-unc, on sides; SEVERITY SCORES 72 h ([5]; S. haematobium, 72 h, max = 4, one line per replicate): 2; DESCRIPTORS 72 h ([5]; S. haematobium, 72 h, one line per replicate): S-unc, on sides
CC(=O)Nc1ccc2nc(Nc3ccc(Cl)c(Cl)c3)c(Nc3ccc(Cl)c(Cl)c3)nc2c1 [Compound 22c, N-(2,3-bis((3,4-dichlorophenyl)amino)quinoxalin-6-yl)acetamide] |  |  |  |  |  |  |  | 6.52 | 1.57 |  | 704 | 2.91 | 2.79 | 3.04 |  |  | EC50 ([3]; Table 5, Series C, read-out: Anti-schistosomal activity EC50 Adult (nM) Motility): 704 nM; pEC50 ([4]; 72 h, read-out: EC50 on schistosomula (bounds and ranges given)): < 5.70; EC50 ([4]; Table 5, Series C, read-out: Anti-schistosomal activity EC50 Schistosomula (μM) Motility): 2.79 µM; EC50 ([4]; Table 5, Series C, read-out: Anti-schistosomal activity EC50 Schistosomula (μM) Phenotype): 3.04 µM
O=[N+]([O-])c1ccc2nc(Nc3ccc(F)cc3)c(Nc3ccc(F)cc3)nc2c1 [Compound 28, N2, N3-bis(4-fluorophenyl)-6-nitroquinoxaline-2,3-diamine] |  |  |  |  |  |  |  |  |  | 382 | 382 | 1.77 | 1.4 | 2.14 | 1.4 | 2.14 | Toxicity on HepG2 in words ([2]; 24 h): low toxicity
